Legend:
normal bone marrow cells = test: CFU-GEMM assay, normal bone marrow differentiation in culture; format: cell-based
Description: The CFU-GEMM assay was performed according to Fauser and Messner (1978, Blood, 52(6) 143–8) and Messner and Fausser (1980, Blut, 41(5) 327–33) with some variations. In brief, heparinized bone marrow cells were layered over Percoll (1.077 gm/ml) (Pharmacia Fine Chemical, Piscataway N.J.) and centrifuged at 400 g at 4° C. for 10 minutes to remove neutrophils and RBCs. The fractionated BM cells at 2×10^5 cells/ml were cultured in IMDM (OCI, Toronto) containing 0.9% (vol/vol) methylcellulose supplemented with 30% FCS (Cansera Rexdale, ON.) or normal human plasma, a cocktail of cytokines containing G-CSF (10 ng/ml, Amgen), IL-3 (40 U/ml, Immunex), MGF (50 ng/ml, Immunex), Erythropoietin (2 u/ml, Epprex) or TPO (10 ng/ml, Amgen), 5×10^−5M β-2-mercaptoethanol and the specified concentration of CR4. The culture mixture was plated in 1 ml volumes into 35 mm petri dishes and incubated at 37° C., 5% CO2 in a humidified atmosphere. All cultures were evaluated at 14 days for the number of BFU-E colonies (defined as aggregates of more than 500 hemoglobinized cells or, 3 or more erythroid subcolonies), CFU-GM colonies (defined as granulocyte or monocyte-macrophage cells or both), CFU-Meg colonies (comprising 4 or more megakaryocytes) and CFU-GEMM colonies (a mixed population comprising of all elements).
The CFU-GEMM assay was performed according to Fauser and Messner (1978, Blood, 52(6) 1243–8) and Messner and Fausser (1980, Blut, 41(5) 327–33) with some variations. In brief, heparinized bone marrow cells were layered over Percoll (1.077 gm/ml) (Pharmacia Fine Chemical, Piscataway N.J.) and centrifuged at 400 g at 4° C. for 10 minutes to remove neutrophils and RBCs. […] All cultures were evaluated at 14 days for the number of BFU-E colonies (defined as aggregates of more than 500 hemaglobinized cells or, 3 or more erythroid subcolonies) and CFU-C colonies (defined as granulocyte or monocyte-macrophage cells or both).
The CFU-GEMM assay was performed according to Fauser and Messner (1978, Blood, 52(6) 1243–8) and Messner and Fausser (1980, Blut, 41(5) 327–33) with some variations (British Journal of Haematology, 1992, 80, p40–48). […] All cultures were evaluated at 14 days for the number of BFU-E colonies (defined as aggregates of more than 500 hemoglobinized cells or, 3 or more erythroid subcolonies) and CFU-C colonies (defined as granulocyte or monocyte-macrophage cells or both).

[1] = Retention in blood after I.V. injection; format: in vivo
[2] = test system: variety of cancer cells (ALL, Philadelphia positive ALL, acute myeloid leukemia, myeloma, B-lineage lymphoma); test: Cancer cell growth in culture, summary statements; format: cell-based
[3] = test system: Philadelphia positive ALL, AML and lymphoma; test: In vitro / ex vivo purging assays, summary statements; format: cell-based

N#C/C(=C\C=C\c1ccc(O)c(O)c1)C(=O)NCc1ccccc1 [CR4, (E,E)-2-(Benzylamido)-3-(3,4-dihydroxystyryl)acrylonitrile]
effect upon normal cells (normal bone marrow cells; at concentrations equivalent to those active on the cancer cells of the same example): no effect | toxicity to normal cells (normal bone marrow cells; until concentrations of 10–20 μM or greater were achieved): minimal toxicity | time still detectable in the blood after I.V. injection [1]: ≥ 30 min | efficacy against a variety of cell types (Acute Lymphoblastic Leukemia, Philadelphia positive Leukemia, Acute Myeloid Leukemia) ([2]; in culture): highly effective | toxicity to cancer cells ([2]; low nanomolar doses, long term exposure): highly toxic | efficacy as ex vivo purging agents [3]: effective

Reference: US7012095B2, “Compounds for modulating cell proliferation” (HSC Research and Development Limited, priority 2000, dated 2006)
